According to patent US10710994B2, “Oxadiazole transient receptor potential channel inhibitors” (Genentech, Inc., priority 2018, dated 2020):
Where two headings read alike, the source gives them in different places.

Target: human TRPA1 channel (Homo sapiens (Human), UniProt O75762)
Test: hTRPA1 CHO Ca2+ FLIPR Tetra assay: block of cinnamaldehyde induced calcium influx
Assay type: cell-based
Conditions: CHO cells expressing TRPA1, Hill coefficient fixed to 1.5
Outline: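 TRPA1-expressing CHO cells loaded with calcium indicator dye (1 h 37° C, then 15 min room temperature) in HBSS/20 mM HEPES pH 7.4/0.02% BSA. IC50 from fits with fixed Hill coefficient.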

[1] = read-out: hTRPA1 IC50 10 min, 10 minutes incubation with compound before cinnamaldehyde (about EC80)
[2] = read-out: hTRPA1 IC50 90 min, 90 minutes incubation with compound before cinnamaldehyde (about EC80)
[3] = hTRPA1 IC50 90 min, 90 minutes incubation with compound before cinnamaldehyde (about EC80)

Chain of human TRPA1 channel (O75762 whole entry): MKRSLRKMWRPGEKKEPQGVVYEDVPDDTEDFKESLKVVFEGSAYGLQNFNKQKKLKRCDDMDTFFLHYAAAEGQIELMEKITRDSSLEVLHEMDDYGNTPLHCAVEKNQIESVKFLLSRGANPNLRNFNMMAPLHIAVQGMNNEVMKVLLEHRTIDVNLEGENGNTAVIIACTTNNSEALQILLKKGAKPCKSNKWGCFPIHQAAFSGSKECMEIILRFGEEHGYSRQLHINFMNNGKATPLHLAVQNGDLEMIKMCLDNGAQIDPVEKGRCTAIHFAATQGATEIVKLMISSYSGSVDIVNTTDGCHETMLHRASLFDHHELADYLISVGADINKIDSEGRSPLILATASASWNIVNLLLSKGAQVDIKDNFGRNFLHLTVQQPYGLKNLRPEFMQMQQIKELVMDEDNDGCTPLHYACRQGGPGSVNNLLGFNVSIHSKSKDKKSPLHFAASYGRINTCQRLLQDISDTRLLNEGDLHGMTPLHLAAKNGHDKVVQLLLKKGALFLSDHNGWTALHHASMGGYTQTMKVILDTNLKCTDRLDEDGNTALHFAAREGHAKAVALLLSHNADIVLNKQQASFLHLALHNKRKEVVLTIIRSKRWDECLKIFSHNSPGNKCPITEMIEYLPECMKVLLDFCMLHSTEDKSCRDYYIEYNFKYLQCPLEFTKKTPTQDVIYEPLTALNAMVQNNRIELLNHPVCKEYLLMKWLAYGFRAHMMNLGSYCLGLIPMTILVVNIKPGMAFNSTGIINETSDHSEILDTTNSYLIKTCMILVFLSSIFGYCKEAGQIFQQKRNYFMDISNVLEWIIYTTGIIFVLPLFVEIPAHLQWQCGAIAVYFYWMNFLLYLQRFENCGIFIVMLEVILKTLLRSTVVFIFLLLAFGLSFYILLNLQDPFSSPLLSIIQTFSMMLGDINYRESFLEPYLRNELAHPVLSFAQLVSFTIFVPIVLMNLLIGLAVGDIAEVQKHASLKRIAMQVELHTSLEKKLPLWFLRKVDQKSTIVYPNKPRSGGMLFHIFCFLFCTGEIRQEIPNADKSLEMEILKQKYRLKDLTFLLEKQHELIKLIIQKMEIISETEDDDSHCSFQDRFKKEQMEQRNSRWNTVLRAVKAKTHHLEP

| SMILES | IC50 [1] [nM] | IC50 [2] [nM] | IC50 [3] [nM] | IC50 (hTRPA1 IC50 10 min, 10 minutes incubation with compound before cinnamaldehyde (about EC80)) [nM] |
| --- | --- | --- | --- | --- |
| Cn1cnc2c(C#N)nn(Cc3nc([C@@H]4CO[C@@H](c5ccc(Cl)cc5)C4)no3)c(=O)c21 [Example 131, 6-((3-((3R,5R)-5-(4-chlorophenyl)tetrahydro-furan-3-yl)-1,2,4-oxadiazol-5-yl)methyl)-1-methyl-7-oxo-6,7-dihydro-1H-imidazo[4,5-d]pyridazine-4-carbonitrile] | 7.42 | 3.1 | – | – |
| Cn1cnc2ncn(Cc3nc([C@@H]4CO[C@@H](c5ccccc5)C4)no3)c(=O)c21 [Example 13, 7-methyl-1-((3-((3R,5R)-5-phenyltetrahydrofuran-3-yl)-1,2,4-oxadiazol-5-yl)methyl)-1,7-dihydro-6H-purin-6-one] | 82.3 | 33 | – | – |
| O=c1c2cccnc2ncn1Cc1nc([C@@H]2CO[C@@H](c3ccc(F)cc3)C2)no1 [Example 147, 3-((3-((3R,5R)-5-(4-fluorophenyl)tetrahydro-furan-3-yl)-1,2,4-oxadiazol-5-yl)methyl)pyrido[2,3-d]pyrimidin-4(3H)-one] | 107 | 82 | – | – |
| COc1nccc2c(=O)n(Cc3nc([C@@H]4CO[C@@H](c5ccc(Cl)cc5)C4)no3)cnc12 [Example 52, 3-((3-((3R,5R)-5-(4-chlorophenyl)tetrahydro-furan-3-yl)-1,2,4-oxadiazol-5-yl)methyl)-8-methoxypyrido[3,4-d]pyrimidin-4(3H)-one] | 95.1 | 140 | – | – |
| Cc1nc(NC2CNC2)n2ncn(Cc3nc([C@@H]4CO[C@@H](c5ccc(Cl)cc5)C4)no3)c(=O)c12 [Example 79] | – | 92 | – | – |
| Cc1cnn2ncn(Cc3nc([C@@H]4CO[C@@H](c5ccc6cn[nH]c6c5)C4)no3)c(=O)c12 [Example 139, 3-((3-((3R,5R)-5-(1H-indazol-6-yl)tetrahydrofuran-3-yl)-1,2,4-oxadiazol-5-yl)methyl)-5-methylpyrazolo[5,1-f] [1,2,4]triazin-4(3H)-one] | 19.5 | 7.5 | – | – |
| Cc1n[nH]c2ncn(Cc3nc([C@@H]4CO[C@@H](c5ccc(Cl)cc5)C4)no3)c(=O)c12 [Example 117, 5-((3-((3R,5R)-5-(4-chlorophenyl)tetrahydro-furan-3-yl)-1,2,4-oxadiazol-5-yl)methyl)-3-methyl-1,5-dihydro-4H-pyrazolo[3,4-d] pyrimidin-4-one] | 11.3 | 5.9 | – | – |
| Nc1nc2ncccc2c(=O)n1Cc1nc([C@@H]2CO[C@@H](c3cccc(F)c3)C2)no1 [Example 119, 2-amino-3-((3-((3R,5R)-5-(3-fluorophenyl)tetrahydro-furan-3-yl)-1,2,4-oxadiazol-5-yl)methyl) pyrido[2,3-d]pyrimidin-4(3H)-one] | 31.9 | 13 | – | – |
| Cn1nnc2cnn(Cc3nc([C@@H]4CO[C@@H](c5ccc(Cl)cc5)C4)no3)c(=O)c21 [Example 140, 5-((3-((3R,5R)-5-(4-chlorophenyl)tetrahydro-furan-3-yl)-1,2,4-oxadiazol-5-yl)methyl)-3-methyl-3,5-dihydro-4H-[1,2,3]triazolo[4,5-d]pyridazin-4-one] | 80.1 | 43 | – | – |
| Cn1cnc2ncn(Cc3nc([C@@H]4CO[C@@H](c5ccc(Cl)c(F)c5)C4)no3)c(=O)c21 [Example 32, 1-((3-((3R,5R)-5-(4-chloro-3-fluorophenyl)tetrahydro-furan-3-yl)-1,2,4-oxadiazol-5-yl)methyl)-7-methyl-1,7-dihydro-6H-purin-6-one] | 7.88 | 2 | – | – |
| Cc1cccc2nn(Cc3nc([C@@H]4CO[C@@H](c5ccc(Cl)cc5)C4)no3)c(=O)n12 (racemic) [Example 100, 5-methyl-2-[[3-[rac-(3R,5R)-5-(4-chlorophenyl)tetrahydro-furan-3-yl]-1,2,4-oxadiazol-5-yl]methyl]-[1,2,4]triazolo[4,3-a] pyridin-3-one] | – | – | 140 | 153 |
| Cn1cnc2cnn(Cc3nc([C@@H]4CO[C@@H](c5ccc(Cl)cc5)C4)no3)c(=O)c21 [Example 57, 5-((3-((3R,5R)-5-(4-chlorophenyl)tetrahydro-furan-3-yl)-1,2,4-oxadiazol-5-yl)methyl)-3-methyl-3,5-dihydro-4H-imidazo[4,5-d] pyridazin-4-one] | 38.8 | 18 | – | – |

Other lines, results leading:

| IC50 [1] [nM] | IC50 [2] [nM] | IC50 [3] [nM] | IC50 (hTRPA1 IC50 10 min, 10 minutes incubation with compound before cinnamaldehyde (about EC80)) [nM] | SMILES |
| --- | --- | --- | --- | --- |
| 40.5 | 3.1 | – | – | Cn1cnc2nc(N)n(Cc3nc([C@@H]4CO[C@@H](c5cccc(F)c5)C4)no3)c(=O)c21 [Example 125, 2-amino-1-((3-((3R,5R)-5-(3-fluorophenyl)tetrahydrofuran-3-yl)-1,2,4-oxadiazol-5-yl)methyl)-7-methyl-1,7-dihydro-6H-purin-6-one] |
| 16.6 | 13 | – | – | O=c1c2cccnc2cnn1Cc1nc([C@@H]2CO[C@@H](c3ccc(F)cc3)C2)no1 [Example 11, 6-((3-((3R,5R)-5-(4-fluorophenyl)tetra-hydrofuran-3-yl)-1,2,4-oxadiazol-5-yl)methyl)pyrido[2,3-d]pyridazin-5(6H)-one] |
| 56.9 | 6.6 | – | – | Nc1nn2ncc(Cl)c2c(=O)n1Cc1nc([C@@H]2CO[C@@H](c3ccc(F)cc3)C2)no1 [Example 143, 2-amino-5-chloro-3-((3-((3R,5R)-5-(4-fluorophenyl)tetrahydro-furan-3-yl)-1,2,4-oxadiazol-5-yl)methyl)pyrazolo[5,1-f][1,2,4]triazin-4(3H)-one] |
| 126 | 17 | – | – | Cn1cnc2nc(N)n(Cc3nc([C@@H]4CO[C@@H](c5ccc(Cl)cc5)C4)no3)c2c1=O [Example 123, 8-amino-7-((3-((3R,5R)-5-(4-chlorophenyl)tetrahydro-furan-3-yl)-1,2,4-oxadiazol-5-yl)methyl)-1-methyl-1,7-dihydro-6H-purin-6-one] |
| 126 | 19 | – | – | Cn1c(N)nc2ncn(Cc3nc([C@@H]4CO[C@@H](c5ccc(F)cc5)C4)no3)c(=O)c21 [Example 22, 8-amino-1-((3-((3R,5R)-5-(4-fluorophenyl)tetrahydro-furan-3-yl)-1,2,4-oxadiazol-5-yl)methyl)-7-methyl-1,7-dihydro-6H-purin-6-one] |
| 8.29 | 2.7 | – | – | Nc1nc2ncccc2c(=O)n1Cc1nc([C@@H]2CO[C@@H](c3ccc(Cl)cc3)C2)no1 [Example 62, 2-amino-3-((3-((3R,5R)-5-(4-chlorophenyl)tetrahydrofuran-3-yl)-1,2,4-oxadiazol-5-yl)methyl)pyrido[2,3-d] pyrimidin-4(3H)-one] |
| – | – | 33 | – | Cc1nc(Br)n2ncn(Cc3nc([C@@H]4CO[C@@H](c5ccc(F)cc5)C4)no3)c(=O)c12 (racemic) [Example 90, 7-bromo-5-methyl-3-[[3-[rac-(3R,5R)-5-(4-fluorophenyl)tetrahydro-furan-3-yl]-1,2,4-oxadiazol-5-yl]methyl] imidazo[5,1-f][1,2,4] triazin-4-one] |
| – | 75 | – | – | Cc1nc(N)n2ncn(Cc3nc([C@@H]4CO[C@@H](c5ccc(F)cc5)C4)no3)c(=O)c12 [Example 81, 7-amino-3-((3-((3R,5R)-5-(4-fluorophenyl)tetrahydro-furan-3-yl)-1,2,4-oxadiazol-5-yl)methyl)-5-methyl-imidazo[5,1-f][1,2,4]triazin-4(3H)-one] |
